Source: US10000451B2, “MAP4K4 (HGK) inhibitors” (SRI INTERNATIONAL, priority 2015, dated 2018)
Blank lines part the entries; values can stand above or below the compound they belong to.

What was measured:
[1] = system: BT549; assay: Breast cancer cell line growth inhibition; type: cell-based; conditions: Homo sapiens, BT-549; BT549, triple negative; read-out: IC50 against breast cancer cell lines
Text: (§1) Generally, their potency is positively correlated with MAP4K4 expression in cancer cell lines.

[2] = system: HS578T; assay: Breast cancer cell line growth inhibition; type: cell-based; conditions: Homo sapiens, Hs-578T, triple negative, read-out: IC50 against breast cancer cell lines
Text: as §1

[3] = system: MCF-7; assay: Breast cancer cell line growth inhibition; type: cell-based; conditions: Homo sapiens, MCF7; MCF-7, ER (+); read-out: IC50 against breast cancer cell lines
Text: as §1

[4] = system: MDA-MB-231; assay: Breast cancer cell line growth inhibition; type: cell-based; conditions: Homo sapiens; MDA-MB-231, triple negative; read-out: IC50 against breast cancer cell lines
Text: as §1

[5] = system: T47D; assay: Breast cancer cell line growth inhibition; type: cell-based; conditions: Homo sapiens, ER (+), read-out: IC50 against breast cancer cell lines
Text: as §1

[6] = system: A498; assay: Activity against cancer cell lines; type: cell-based; conditions: Homo sapiens
Text: (§2) Exemplary data is shown below.

[7] = system: ACHN; assay: Activity against cancer cell lines; type: cell-based; conditions: Homo sapiens
Text: as §2

[8] = system: ADRRES; assay: Activity against cancer cell lines; type: cell-based
Text: as §2

[9] = system: CAKI1; assay: Activity against cancer cell lines; type: cell-based; conditions: Homo sapiens, CAKI-1
Text: as §2

[10] = system: HCT15; assay: Activity against cancer cell lines; type: cell-based; conditions: Homo sapiens, HCT-15
Text: as §2

[11] = system: HL60; assay: Activity against cancer cell lines; type: cell-based
Text: as §2

[12] = system: LOXIMVI; assay: Activity against cancer cell lines; type: cell-based; conditions: Homo sapiens, LOX IMVI
Text: as §2

[13] = system: M14; assay: Activity against cancer cell lines; type: cell-based; conditions: Homo sapiens
Text: as §2

[14] = system: MCF7; assay: Activity against cancer cell lines; type: cell-based; conditions: Homo sapiens
Text: as §2

[15] = system: MDAMB435; assay: Activity against cancer cell lines; type: cell-based; conditions: Homo sapiens, MDA-MB-435
Text: as §2

[16] = system: MOLT4; assay: Activity against cancer cell lines; type: cell-based; conditions: Homo sapiens, MOLT-4
Text: as §2

[17] = system: NCIH522; assay: Activity against cancer cell lines; type: cell-based; conditions: Homo sapiens, NCI-H522
Text: as §2

[18] = system: OVCAR4; assay: Activity against cancer cell lines; type: cell-based
Text: as §2

[19] = system: RXF393; assay: Activity against cancer cell lines; type: cell-based; conditions: Homo sapiens, RXF 393
Text: as §2

[20] = system: SF295; assay: Activity against cancer cell lines; type: cell-based; conditions: Homo sapiens, SF-295
Text: as §2

[21] = system: SF539; assay: Activity against cancer cell lines; type: cell-based; conditions: Homo sapiens, SF-539
Text: as §2

[22] = system: SKMEL2; assay: Activity against cancer cell lines; type: cell-based; conditions: Homo sapiens, SK-MEL-2
Text: as §2

[23] = system: SKMEL5; assay: Activity against cancer cell lines; type: cell-based; conditions: Homo sapiens, SK-MEL-5
Text: as §2

[24] = system: SNB75; assay: Activity against cancer cell lines; type: cell-based
Text: as §2

[25] = system: UO31; assay: Activity against cancer cell lines; type: cell-based; conditions: Homo sapiens, UO-31
Text: as §2

[26] = biological target: MAP4K4 (Homo sapiens, UniProt O95819); assay: MAP4K4 kinase assay (in-house); type: biochemical
Text: Signaling pathways mediating anticancer activity. […] We established the MAP4K4 kinase assay in-house and confirmed that the compounds are indeed potent MAP4K4 inhibitors.

[27] = system: OVCAR8; assay: Activity against cancer cell lines; type: cell-based
Text: as §2

[28] = system: DU-145; assay: Prostate cancer cell proliferation assay; type: cell-based; conditions: Homo sapiens; DU-145, 72 hours; read-out: IC50 against prostate cancer cell lines
Text: (§3) The dose-response curves of cell growth inhibition were consistent.
(§4) Cell proliferation assays.

[29] = system: LNCaP; assay: Prostate cancer cell proliferation assay; type: cell-based; conditions: Homo sapiens, 72 hours, read-out: IC50 against prostate cancer cell lines
Text: as §3, §4

[30] = system: PC-3; assay: Prostate cancer cell proliferation assay; type: cell-based; conditions: Homo sapiens; PC-3, 72 hours; read-out: IC50 against prostate cancer cell lines
Text: as §3, §4

[31] = system: PC-3 prostate cancer xenografts; assay: Antitumor activity in PC-3 xenografts; type: in vivo; conditions: nude mice
Protocol: In vivo efficacy studies: antitumor and antimetastatic effects against androgen-insensitive prostate cancer. Antitumor activity was tested in nude mice bearing aggressive, androgen-independent PC-3 prostate cancer xenografts. Docetaxel, a standard treatment for metastatic prostate cancer, was included in the study as a positive control. Docetaxel was administered at its maximum tolerated dose (MTD) via intraperitoneal (IP) (Q3Dx2; Monday, Friday). Mice were orally treated with compound in 0.5% HPC with 4 different treatment regimens. The control group was treated with vehicle (0.5% HPC) only. Treatment was initiated when average tumor volume reached 100 mm^3 (10 mice per group).
The compounds show a significant dose-dependent growth inhibition of prostate tumor. Docetaxel at its MTD (7.5 mg/kg; Q3Dx2) produces only 10-15% growth inhibition. […] Treatment with representative compounds (12.5, 25 and 50 mg/kg/day) caused a significant dose-dependent growth reduction of PC-3 tumors.

[32] = In vivo pharmacokinetic study, oral formulations; conditions: mouse, plasma, 60 mg/kg, mice
Protocol: In vivo pharmacokinetic (PK) studies; oral bioavailability. We conducted pre-formulation studies and selected different oral formulations for mice PK studies to explore the effect of formulation on drug absorption.
The PK profiles of representative compounds (60 mg/kg) were determined in different oral formulations (HPC and PTTW) with groups of three mice per time point.

[33] = Metabolic stability in liver microsomes; type: in vitro ADME; conditions: NADPH, 10 μM
Protocol: The compounds are experimentally predicted to have a longer half-life in humans. We conducted metabolic stability studies in human and mouse liver microsomes. Metabolic stability in pooled human or mouse liver microsomes, in the presence of NADPH, was measured with 10 μM compound over 60 min.

[34] = system: caspase-3 and -7 activities; assay: Caspase-Glo 3/7 apoptosis assay; type: cell-based; conditions: 20 nM
Text: Efficacy-related endpoints. We conducted an in-depth mechanism of action study in androgen-sensitive (LNCaP) and -insensitive (PC-3 and DU-145) prostate cancer cell lines.
Apoptosis assay. The Caspase-Glo® 3/7 Assay (Promega), a homogeneous, luminescent assay that measures caspase-3 and -7 activities, was used to access apoptosis induction.

Chain of MAP4K4 (O95819 whole entry): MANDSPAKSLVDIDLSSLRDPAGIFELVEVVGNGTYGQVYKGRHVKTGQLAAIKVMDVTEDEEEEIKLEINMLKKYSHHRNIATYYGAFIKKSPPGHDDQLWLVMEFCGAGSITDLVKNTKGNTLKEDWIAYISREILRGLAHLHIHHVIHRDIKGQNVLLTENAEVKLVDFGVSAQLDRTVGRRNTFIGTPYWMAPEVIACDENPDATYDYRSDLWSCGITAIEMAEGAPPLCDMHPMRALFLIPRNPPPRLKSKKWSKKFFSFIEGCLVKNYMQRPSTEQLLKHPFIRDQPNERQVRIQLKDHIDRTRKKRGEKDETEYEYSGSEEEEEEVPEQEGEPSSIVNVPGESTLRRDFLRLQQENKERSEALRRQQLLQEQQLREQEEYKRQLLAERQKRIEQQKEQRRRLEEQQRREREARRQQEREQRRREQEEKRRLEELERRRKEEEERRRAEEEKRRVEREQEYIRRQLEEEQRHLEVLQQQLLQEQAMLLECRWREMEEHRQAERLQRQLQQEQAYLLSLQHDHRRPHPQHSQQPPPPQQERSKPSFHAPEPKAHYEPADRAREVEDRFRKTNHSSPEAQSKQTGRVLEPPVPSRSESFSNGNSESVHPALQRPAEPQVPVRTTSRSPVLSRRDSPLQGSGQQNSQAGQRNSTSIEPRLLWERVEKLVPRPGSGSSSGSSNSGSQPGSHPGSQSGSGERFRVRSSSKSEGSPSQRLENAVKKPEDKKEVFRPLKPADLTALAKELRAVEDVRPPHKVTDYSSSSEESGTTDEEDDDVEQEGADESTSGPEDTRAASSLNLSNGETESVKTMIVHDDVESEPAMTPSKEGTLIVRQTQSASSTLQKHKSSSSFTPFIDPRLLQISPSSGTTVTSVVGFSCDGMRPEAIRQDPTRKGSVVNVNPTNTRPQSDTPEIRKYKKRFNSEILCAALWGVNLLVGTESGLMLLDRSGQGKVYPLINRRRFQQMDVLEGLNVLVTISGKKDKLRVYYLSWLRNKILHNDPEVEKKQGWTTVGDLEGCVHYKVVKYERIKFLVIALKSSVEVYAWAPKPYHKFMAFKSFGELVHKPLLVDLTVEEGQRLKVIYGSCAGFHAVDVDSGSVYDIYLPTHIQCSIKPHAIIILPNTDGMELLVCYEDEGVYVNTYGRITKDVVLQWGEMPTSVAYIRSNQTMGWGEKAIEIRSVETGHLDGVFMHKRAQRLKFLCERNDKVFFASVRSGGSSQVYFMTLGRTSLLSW

IC50 [1]: 151 nM | IC50 [2]: 148 nM | IC50 [3]: 156 nM | IC50 [4]: 153 nM | IC50 [5]: 152 nM
SMILES: CC(=O)O[C@H]1C(=O)[C@@]2(C)[C@H]([C@H](OC(=O)c3ccccc3)[C@]3(O)C[C@H](OC(=O)[C@H](O)[C@@H](NC(=O)c4ccccc4)c4ccccc4)C(C)=C1C3(C)C)[C@]1(OC(C)=O)CO[C@@H]1C[C@@H]2O [Paclitaxel, reference compound]

IC50 [26]: 160 nM | IC50 [6]: 52 nM | IC50 [7]: 5.7 nM | IC50 [8]: 27 nM | IC50 [9]: 23 nM | IC50 [10]: 27 nM | IC50 ([11]; HL60): 24 nM | IC50 ([11]; Homo sapiens, HL-60, HL60): 35 nM | IC50 [12]: 14 nM | IC50 [13]: 38 nM | IC50 [14]: 59 nM | IC50 [15]: 21 nM | IC50 [16]: 53 nM | IC50 [17]: 32 nM | IC50 ([18]; Homo sapiens, OVCAR-4, OVCAR4): 90 nM | IC50 ([18]; OVCAR4): 56 nM | IC50 ([27]; Homo sapiens, OVCAR-8, OVCAR8): 67 nM | IC50 ([27]; OVCAR8): 53 nM | IC50 [19]: 38 nM | IC50 [20]: 54 nM | IC50 [21]: 39 nM | IC50 [22]: 63 nM | IC50 [23]: 33 nM | IC50 ([24]; Homo sapiens, SNB-75, SNB75): 42 nM | IC50 ([24]; SNB75): 34 nM | IC50 [25]: 66 nM
SMILES: COc1ccc2[nH]c(C(=O)c3ccc4[nH]ccc4c3)cc2c1 [Cmpd 1, (1H-indol-5-yl)(5-methoxy-1H-indol-2-yl)methanone]

Second part, the compound before the results:

SMILES: COc1ccc2[nH]c(C(=NO)c3ccc4[nH]ccc4c3)cc2c1 [Cmpd 37, (1H-indol-5-yl)(5-methoxy-1H-indol-2-yl)methanone oxime]
IC50 [6]: 330 nM | IC50 [7]: 760 nM | IC50 [8]: 64 nM | IC50 [9]: 67 nM | IC50 [10]: 68 nM | IC50 ([11]; HL60): 78 nM | IC50 ([11]; Homo sapiens, HL-60, HL60): 81 nM | IC50 [12]: 440 nM | IC50 [13]: 110 nM | IC50 [14]: 85 nM | IC50 [15]: 66 nM | IC50 [16]: 120 nM | IC50 [17]: 100 nM | IC50 ([18]; Homo sapiens, OVCAR-4, OVCAR4): 150 nM | IC50 ([18]; OVCAR4): 110 nM | IC50 [19]: 140 nM | IC50 [20]: 250 nM | IC50 [21]: 170 nM | IC50 [22]: 580 nM | IC50 [23]: 210 nM | IC50 ([24]; Homo sapiens, SNB-75, SNB75): 110 nM | IC50 [25]: 690 nM

SMILES: CC(=O)O[C@@]12CO[C@@H]1C[C@H](O)[C@@]1(C)C(=O)[C@H](O)C3=C(C)[C@@H](OC(=O)[C@H](O)[C@@H](NC(=O)OC(C)(C)C)c4ccccc4)C[C@@](O)([C@@H](OC(=O)c4ccccc4)[C@H]21)C3(C)C [Docetaxel, reference compound]
IC50 [28]: 72 nM | IC50 [29]: 31 nM | IC50 [30]: 95 nM | tumor growth inhibition ([31]; PC-3 xenografts, MTD 7.5 mg/kg IP Q3Dx2): 10-15% | lethal toxicity ([31]; 7.5 mg/kg IP, after the 4th injection): mice died on Day 13 due to lethal toxicity

SMILES: COc1cc2cc(C(=O)c3ccc4[nH]ccc4c3)[nH]c2cc1OC [Cmpd 15, (5,6-dimethoxy-1H-indol-2-yl)(1H-indol-5-yl)methanone]
IC50 [1]: 17 nM | IC50 [2]: 16 nM | IC50 [3]: 123 nM | IC50 [4]: 21 nM | IC50 [5]: 30 nM | IC50 [28]: 35 nM | IC50 [29]: 21 nM | IC50 [30]: 17 nM

SMILES: COc1ccc2[nH]c(C(=O)c3ccc4[nH]ncc4c3)c(Cl)c2c1 [Cmpd 23, (3-chloro-5-methoxy-1H-indol-2-yl)(1H-indazol-5-yl)methanone]
IC50 [26]: 410 nM | IC50 [1]: 23 nM | IC50 [2]: 29 nM | IC50 [3]: 114 nM | IC50 [4]: 28 nM | IC50 [5]: 44 nM | IC50 [28]: 53 nM | IC50 [29]: 28 nM | IC50 [30]: 20 nM

SMILES: COc1ccc2[nH]c(C(=O)c3ccc4[nH]nc(C)c4c3)cc2c1 [Cmpd 18, (5-methoxy-1H-indol-2-yl)(3-methyl-1H-indazol-5-yl)methanone]
IC50 [26]: 140 nM | IC50 [1]: 12 nM | IC50 [2]: 13 nM | IC50 [3]: 83 nM | IC50 [4]: 14 nM | IC50 [5]: 29 nM | IC50 [28]: 23 nM | IC50 [29]: 16 nM | IC50 [30]: 11 nM | concentration at 0.5 h ([32]; oral 60 mg/kg in 0.5% HPC): 319 ± 106 ng/mL | concentration at 4 h ([32]; oral 60 mg/kg in 0.5% HPC): 33 ± 21 ng/mL | concentration at 8 h ([32]; oral 60 mg/kg in 0.5% HPC): 34.7 ± 18.8 ng/mL | concentration at 24 h ([32]; oral 60 mg/kg in 0.5% HPC): 1.3 ± 2.3 ng/mL | concentration at 0.5 h ([32]; oral 60 mg/kg in PTTW): 798 ± 204 ng/mL | concentration at 4 h ([32]; oral 60 mg/kg in PTTW): 75.5 ± 19.3 ng/mL | concentration at 8 h ([32]; oral 60 mg/kg in PTTW): 21.7 ± 11.1 ng/mL | concentration at 24 h ([32]; oral 60 mg/kg in PTTW): 15.4 ± 7.2 ng/mL | % of Parent Compound Remaining vs T = 0 min ([33]; human liver microsomes, 15 min): 72.9% | % of Parent Compound Remaining vs T = 0 min ([33]; human liver microsomes, 30 min): 63.1% | % of Parent Compound Remaining vs T = 0 min ([33]; human liver microsomes, 60 min): 53.0% | % of Parent Compound Remaining vs T = 0 min ([33]; mouse liver microsomes, 15 min): 31.6% | % of Parent Compound Remaining vs T = 0 min ([33]; mouse liver microsomes, 30 min): 9.9% | % of Parent Compound Remaining vs T = 0 min ([33]; mouse liver microsomes, 60 min): 1.0% | apoptosis induction ([34]; 24 hours treatment): significantly induced apoptosis | apoptosis induction ([34]; 48 hours treatment): more profound apoptotic effect

SMILES: COc1ccc2[nH]c(C(=O)c3ccc4[nH]ncc4c3)cc2c1 [Cmpd 17, (1H-indazol-5-yl)(5-methoxy-1H-indol-2-yl)methanone]
IC50 [26]: 260 nM | IC50 [1]: 9 nM | IC50 [2]: 10 nM | IC50 [3]: 53 nM | IC50 [4]: 10 nM | IC50 [5]: 17 nM | IC50 [28]: 14 nM | IC50 [29]: 9 nM | IC50 [30]: 6 nM
